Experimental data reported in PubChem BioAssay AID330 (DTP/NCI, 2004).
Inconclusive results and toxic doses are left out. The calls were made as follows: active = survival T/C of 150% or more; inactive = T/C below 125% in these data.

Tested on: P388 leukemia ip, CD2F1 mice, survival T/C
Assay: NCI In Vivo Anticancer Drug Screen. Data for tumor model P388 Leukemia (intraperitoneal) in CD2F1 (CDF1) mice
Details: endpoint: median survival time, higher = longer survival
Outline: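 Mice carrying the transplanted tumor received test compound or vehicle. Survival was recorded in each group, and the value is the treated-group measurement divided by that of the vehicle-treated control group.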

[1] = dose: 60.0 mg/kg/injection, schedule: Q01DX005 (ip), vehicle: Klucel (hydroxypropylcellulose) (HPC)
[2] = dose: 120.0 mg/kg/injection, schedule: Q01DX005 (ip), vehicle: Klucel (hydroxypropylcellulose) (HPC)
[3] = dose: 240.0 mg/kg/injection, schedule: Q01DX005 (ip), vehicle: Klucel (hydroxypropylcellulose) (HPC)
[4] = dose: 50.0 mg/kg/injection, schedule: Q01DX005 (ip), vehicle: Klucel (hydroxypropylcellulose) (HPC)
[5] = dose: 100.0 mg/kg/injection, schedule: Q01DX005 (ip), vehicle: Klucel (hydroxypropylcellulose) (HPC)
[6] = dose: 50.0 mg/kg/injection, schedule: Q01DX005 (ip), vehicle: saline with Tween-80
[7] = dose: 50.0 mg/kg/injection, schedule: Q01DX009 (ip), vehicle: saline with Tween-80
[8] = dose: 100.0 mg/kg/injection, schedule: Q01DX009 (ip), vehicle: saline with Tween-80
[9] = dose: 60.0 mg/kg/injection, schedule: Q01DX005 (ip), vehicle: saline with Tween-80
[10] = dose: 120.0 mg/kg/injection, schedule: Q01DX005 (ip), vehicle: saline with Tween-80
[11] = dose: 240.0 mg/kg/injection, schedule: Q01DX005 (ip), vehicle: saline with Tween-80
[12] = dose: 50.0 mg/kg/injection, schedule: Q01DX009 (ip), vehicle: saline
[13] = dose: 100.0 mg/kg/injection, schedule: Q01DX009 (ip), vehicle: saline
[14] = dose: 200.0 mg/kg/injection, schedule: Q01DX009 (ip), vehicle: saline
[15] = dose: 100.0 mg/kg/injection, schedule: Q01DX005 (ip), vehicle: saline with Tween-80
[16] = dose: 200.0 mg/kg/injection, schedule: Q01DX005 (ip), vehicle: saline with Tween-80

Measured: T/C

CCOC(=O)C1C(c2cc(OC)c(OC)c(OC)c2)c2cc3c(cc2OC1(C)N1CCCC1)OCO3 (stereo not given)
inactive: [1] 97 % of control | [2] 96 % of control | [3] 96 % of control

CCOC(=O)C1=CNc2c(C#N)cnn2C1(C(=O)OCC)c1c[nH]c2ccccc12 (stereo not given)
inactive: dose: 25.0 mg/kg/injection, schedule: Q01DX005 (ip), vehicle: Klucel (hydroxypropylcellulose) (HPC) 109 % of control | [4] 102 % of control | [5] 98 % of control | dose: 200.0 mg/kg/injection, schedule: Q01DX005 (ip), vehicle: Klucel (hydroxypropylcellulose) (HPC) 109 % of control

CN1c2ccccc2S(=O)(=O)n2c(COc3ccc(Cl)cc3)nnc21
inactive: dose: 12.5 mg/kg/injection, schedule: Q01DX005 (ip), vehicle: saline with Tween-80 100 % of control | dose: 25.0 mg/kg/injection, schedule: Q01DX005 (ip), vehicle: saline with Tween-80 100 % of control | [6] 106 % of control

CNc1onc(C)c1C
inactive: [7] 103 % of control | [8] 105 % of control | dose: 200.0 mg/kg/injection, schedule: Q01DX009 (ip), vehicle: saline with Tween-80 100 % of control

O=[N+]([O-])c1nccn1CCCO
inactive: dose: 12.5 mg/kg/injection, schedule: Q01DX009 (ip), vehicle: water 98 % of control | dose: 25.0 mg/kg/injection, schedule: Q01DX009 (ip), vehicle: water 97 % of control | dose: 50.0 mg/kg/injection, schedule: Q01DX009 (ip), vehicle: water 100 % of control | dose: 100.0 mg/kg/injection, schedule: Q01DX009 (ip), vehicle: water 103 % of control | dose: 200.0 mg/kg/injection, schedule: Q01DX009 (ip), vehicle: water 100 % of control

COC1=C(C2=C(OC)C(=O)c3cc4c(c(O)c3C2=O)C(=O)OC(C)C4)C(=O)c2c(cc3c(c2O)C(=O)OC(C)C3)C1=O (stereo not given)
inactive: dose: 6.25 mg/kg/injection, schedule: Q01DX009 (ip), vehicle: saline 100 % of control | dose: 12.5 mg/kg/injection, schedule: Q01DX009 (ip), vehicle: saline 98 % of control | dose: 25.0 mg/kg/injection, schedule: Q01DX009 (ip), vehicle: saline 103 % of control

CCC[CH2][Pb]([Cl])([CH2]CCC)[CH2]CCC
inactive: dose: 1.25 mg/kg/injection, schedule: Q01DX009 (ip), vehicle: saline with Tween-80 99 % of control | dose: 2.5 mg/kg/injection, schedule: Q01DX009 (ip), vehicle: saline with Tween-80 99 % of control | dose: 5.0 mg/kg/injection, schedule: Q01DX009 (ip), vehicle: saline with Tween-80 107 % of control | dose: 10.0 mg/kg/injection, schedule: Q01DX009 (ip), vehicle: saline with Tween-80 103 % of control

c1ccc2c(SCCCCCCCCCSc3c4ccccc4nc4ccccc34)c3ccccc3nc2c1
inactive: [1] 107 % of control | [2] 104 % of control | [3] 90 % of control

Cc1ccc(S(=O)(=O)NN=c2c3ccccc3c3nc4ccccc4nc3c3ccccc23)cc1
inactive: [4] 90 % of control | [5] 98 % of control

O=C1c2ccccc2C(O)(C(=O)O)C1(O)CC=C(Cl)Cl (stereo not given)
inactive: dose: 12.5 mg/kg/injection, schedule: Q01DX009 (ip), vehicle: distilled water + Tween-80 103 % of control | dose: 25.0 mg/kg/injection, schedule: Q01DX009 (ip), vehicle: distilled water + Tween-80 99 % of control | dose: 50.0 mg/kg/injection, schedule: Q01DX009 (ip), vehicle: distilled water + Tween-80 91 % of control | dose: 100.0 mg/kg/injection, schedule: Q01DX009 (ip), vehicle: distilled water + Tween-80 95 % of control | dose: 200.0 mg/kg/injection, schedule: Q01DX009 (ip), vehicle: distilled water + Tween-80 91 % of control

Cc1cc(NCCCCCCCCNc2cc(C)nc3cc(N(C)C)ccc23)c2ccc(N(C)C)cc2n1
inactive: dose: 12.5 mg/kg/injection, schedule: Q04DX002 (ip), vehicle: distilled water + Tween-80 + alcohol 108 % of control | dose: 25.0 mg/kg/injection, schedule: Q04DX002 (ip), vehicle: distilled water + Tween-80 + alcohol 118 % of control
active: dose: 100.0 mg/kg/injection, schedule: Q04DX002 (ip), vehicle: distilled water + Tween-80 + alcohol 172 % of control

COc1cc(-c2nnc(SCCN(C)C)o2)cc(OC)c1OC
inactive: dose: 50.0 mg/kg/injection, schedule: Q04DX002 (ip), vehicle: water 100 % of control | dose: 100.0 mg/kg/injection, schedule: Q04DX002 (ip), vehicle: water 101 % of control | dose: 200.0 mg/kg/injection, schedule: Q04DX002 (ip), vehicle: water 100 % of control

O=C1S/C(=C2\C(=O)N(CN3CCCCC3)c3ccc(Br)cc32)C(=O)N1CN1CCCCC1
inactive: [1] 100 % of control | [2] 101 % of control | [3] 99 % of control

CCOC(=O)CC12C=CC(CC(=O)OCC)(CC1)n1c(=O)n(C)c(=O)n12
inactive: dose: 100.0 mg/kg/injection, schedule: Q04DX002 (ip), vehicle: saline with Tween-80 100 % of control | dose: 200.0 mg/kg/injection, schedule: Q04DX002 (ip), vehicle: saline with Tween-80 100 % of control | dose: 400.0 mg/kg/injection, schedule: Q04DX002 (ip), vehicle: saline with Tween-80 101 % of control

CCN(CC)C1=C2/C=CC3=C2\C(=C/C=C\C=C/1C)CC3=O
inactive: [1] 95 % of control | [2] 98 % of control | [3] 96 % of control

Cc1ccc(C)c(NC(=O)C(=O)C(C#N)c2c(Cl)cccc2Cl)c1 (stereo not given)
inactive: [9] 96 % of control | [10] 102 % of control | [11] 99 % of control

S=C(Nc1ccccn1)c1ccccn1
inactive: [7] 95 % of control | [12] 105 % of control | [8] 88 % of control | [13] 103 % of control | [14] 103 % of control

Nc1ccc(S(=O)(=O)NC2C(O)OC(CO)C(O)C2O)cc1 (stereo not given)
inactive: [6] 98 % of control | [15] 96 % of control | [16] 97 % of control

COc1ccc(C(=O)CCC2(C)OCCO2)cc1OC
inactive: [1] 101 % of control | [2] 108 % of control | [3] 106 % of control

COC1=C(N=[N+]=[N-])C(=O)c2ncccc2C1=O
inactive: dose: 0.63 mg/kg/injection, schedule: Q01DX009 (ip), vehicle: DMSO 100 % of control | dose: 1.25 mg/kg/injection, schedule: Q01DX009 (ip), vehicle: DMSO 100 % of control | dose: 1.56 mg/kg/injection, schedule: Q01DX009 (ip), vehicle: saline with Tween-80 95 % of control | dose: 2.5 mg/kg/injection, schedule: Q01DX009 (ip), vehicle: DMSO 107 % of control | dose: 3.12 mg/kg/injection, schedule: Q01DX009 (ip), vehicle: saline with Tween-80 98 % of control | dose: 5.0 mg/kg/injection, schedule: Q01DX009 (ip), vehicle: DMSO 100 % of control

Cc1cc([N+](=O)[O-])cc(Br)c1N
inactive: dose: 100.0 mg/kg/injection, schedule: Q01DX001 (ip), vehicle: saline with Tween-80 100 % of control | dose: 200.0 mg/kg/injection, schedule: Q01DX001 (ip), vehicle: saline with Tween-80 95 % of control | dose: 400.0 mg/kg/injection, schedule: Q01DX001 (ip), vehicle: saline with Tween-80 95 % of control

CN(C)CCN(C(=O)C(O)(c1ccccc1)c1ccccc1)c1ccccc1
inactive: [12] 100 % of control | [13] 100 % of control | [14] 107 % of control

CCCCCCCCCCCC(CCCC)CCCCCCCCCC (stereo not given)
inactive: dose: 50.0 mg/kg/injection, schedule: Q01DX001 (ip), vehicle: saline sonified 100 % of control | dose: 100.0 mg/kg/injection, schedule: Q01DX001 (ip), vehicle: saline sonified 104 % of control | dose: 200.0 mg/kg/injection, schedule: Q01DX001 (ip), vehicle: saline sonified 100 % of control

CCOC(=O)[C@H]1C(CC)=NOC1C (stereo not given in full)
inactive: [9] 102 % of control | [10] 102 % of control | [11] 101 % of control

CCCCNC(=O)[C@@H]1C[C@H](OP(c2ccccc2)c2ccccc2)CN1P(c1ccccc1)c1ccccc1
inactive: [6] 100 % of control | [15] 100 % of control | [16] 99 % of control
